Source: US20070098732A1, “Immunologic compounds for prevention, protection, prophylaxis or treatment of immunological disorders, infections and cancer” (Universite De Montreal, priority 2003, published 2007)

System: EL-4 lymphoma cells
Assay: PDT of EL-4 lymphoma cells with TH9402 and light
Assay type: cell-based
Protocol: The strain of mice B6SJL was used for the evaluation of PDT to induce immuno-protection. In generation of tumor cell lysates, EL-4 cells (American Type Culture Collection, ATCC Accession # TIB-39) were seeded in flasks at 10^6 cells/ml and exposed to 10 μM TH9402 in serum free DMEM without phenol red medium for 40 minutes, followed by exposure to drug-free medium for 90 minutes, then illuminated with a dose of 10J/cm^2. Treated cells were incubated overnight. After incubation, cells and supernatants were collected and spun down. The resulting supernatant was collected, concentrated by vacuum speed using a molecular sieve (centriplus 3000 molecular weight cut-off), and stored frozen at −70° C. until use.

With Br.COC(=O)c1ccccc1-c1c2ccc(=N)c(Br)c-2oc2c(Br)c(N)ccc12 [TH9402, 2′-(6-amino-4,5-dibromo-3-imino-3H-xanthen-9-yl)-benzoic acid methyl ester hydrobromide] the “cell death of EL-4 lymphoma cells undergoing PDT” value was “rapidly proceed to programmed cell death, apoptosis and/or necrosis”.
